This is an account of results in patent US6372770B1, “Benzoxazoles” (Euro-Celtique, S.A., priority 1994, dated 2002).

One test has as its target T1, PDE III (Homo sapiens, UniProt Q14432).
T1 construct: Fractions containing PDE III activity are pooled and dialyzed overnight; from tissue; host or cells: human platelets
The test can be described thus: Type III PDE inhibition, hydrolysis of [3H]-cyclic AMP. In kind it is biochemical. To be noted: for IC50: Type III PDE isolated from human platelets, 0.2 μM cyclic AMP. The method, then:
The Type III PDE is isolated from human platelets using a procedure similar to that previously described by Washer, R. E. et al., Biochem. Pharmacol., 35:787, 1986. Briefly, 1-2 units of platelets are suspended in an equal volume of buffer (20 mM Tris-HCl, pH 7.5, containing 2 mM magnesium acetate, 1 mM dithiothreitol, and 5 mM Na2EDTA). The proteinase inhibitor phenylmethyl-sulfonyl fluoride (PMSF) is also included in this buffer at a final concentration of 200 μM. The suspension is homogenized using a polytron and the homogenate centrifuged at 100,000×g for 60 minutes. This and all subsequent procedures are performed at 0-4° C. The supernatant is then filtered through four layers of gauze and applied to a DEAE-Trisacryl M column, previously equilibrated with buffer B (20 mM Tris-HCl, pH 7.5, containing 1 mM magnesium acetate, 1 mM dithiothreitol and 200 μM PMSF). After application of the sample, the column is washed with several bed volumes of buffer B, after which the different forms of PDE are eluted from the column using two successive linear NaCl gradients (0.05-0.15 M, 300 ml total; 0.15-0.40 M, 200 ml total). Five ml fractions are collected and assayed for cyclic AMP and cyclic GMP PDE activity. Fractions containing PDE III activity are pooled and dialyzed overnight against 4 L of buffer B. The dialyzed PDE III is then concentrated to 10% of the original volume, diluted to 50% with ethylene glycol monoethyl ether and stored at −20° C. PDE III can typically be retained for up to four weeks with little or no loss of activity.
Enzyme activity is assessed by measuring the hydrolysis of [^3H]-cyclic AMP, as described by Thompson, W. J. et al., Adv. Cyclic Nucleotide Res. 10:69, 1979. The cyclic AMP concentration used in this assay is 0.2 μM, which approximates to the Km value. Protein concentration is adjusted to ensure that no more than 15% of the available substrate is hydrolyzed during the incubation period.
(§1) All test compounds are dissolved in dimethyl sulfoxide (final concentration of 2.5%). This concentration of dimethyl sulfoxide inhibits enzyme activity by approximately 10%.

The test system of another test is T2, PDE IV.
T2 construct: PDE IV IC50; other: Type IV PDE isolated from bovine tracheal smooth muscle; rolipram run in the
The test can be described thus: Type IV PDE inhibition, hydrolysis of [3H]-cyclic AMP. In kind it is biochemical, bovine. To be noted: Type IV PDE isolated from bovine tracheal smooth muscle; 0.2 μM cyclic AMP; read-out: PDE IV IC50.
From the text: The PDE IV inhibitory compounds of the present invention may be examined for their PDE IV inhibitory effects via the techniques set forth in the following examples, wherein the ability of the compounds to inhibit PDE IV isolated from bovine tracheal smooth muscle is set forth.
The Type IV PDE is isolated from bovine tracheal smooth muscle using a procedure similar to that previously described by Silver, P. J. et al., Eur. J. Pharmacol. 150:85,1988.(1). Briefly, smooth muscle from bovine trachea is minced and homogenized using a polytron in 10 volumes of an extraction buffer containing 10 mM Tris-acetate (pH 7.5), 2 mM magnesium chloride, 1 mM dithiothreitol and 2,000 units/ml of aprotinin. This and all subsequent procedures are performed at 0-4° C. The homogenate is sonicated and then centrifuged at 48,000×g for 30 minutes. The resulting supernatant is applied to a DEAE Trisacryl M column previously equilibrated with sodium acetate and dithiothreitol. After applications of the sample, the column is washed with sodium acetate/dithiothreitol, after whlich the different forms of PDE are eluted from the column using a linear Tris-HCl/NaCl gradient. Fractions containing Type IV PDE are collected, dialyzed and concentrated to 14% of the original volume. The concentrated fractions are diluted to 50% with ethylene glycol and stored at −20° C.
Enzyme activity is assessed by measuring the hydrolysis of [^3H]-cyclic AMP, as described by Thompson, W. J. et al., Adv. Cyclic Nucleotide Res. 10:69, 1979. The cyclic AMP concentration used in this assay is 0.2 μM, which approximates the Km value. Protein concentration is adjusted to ensure that no more than 15% of the available substrate is hydrolyzed during the incubation period.
as §1

Counter-ions that a name gives are not always drawn.

T1 sequence (Q14432 whole entry): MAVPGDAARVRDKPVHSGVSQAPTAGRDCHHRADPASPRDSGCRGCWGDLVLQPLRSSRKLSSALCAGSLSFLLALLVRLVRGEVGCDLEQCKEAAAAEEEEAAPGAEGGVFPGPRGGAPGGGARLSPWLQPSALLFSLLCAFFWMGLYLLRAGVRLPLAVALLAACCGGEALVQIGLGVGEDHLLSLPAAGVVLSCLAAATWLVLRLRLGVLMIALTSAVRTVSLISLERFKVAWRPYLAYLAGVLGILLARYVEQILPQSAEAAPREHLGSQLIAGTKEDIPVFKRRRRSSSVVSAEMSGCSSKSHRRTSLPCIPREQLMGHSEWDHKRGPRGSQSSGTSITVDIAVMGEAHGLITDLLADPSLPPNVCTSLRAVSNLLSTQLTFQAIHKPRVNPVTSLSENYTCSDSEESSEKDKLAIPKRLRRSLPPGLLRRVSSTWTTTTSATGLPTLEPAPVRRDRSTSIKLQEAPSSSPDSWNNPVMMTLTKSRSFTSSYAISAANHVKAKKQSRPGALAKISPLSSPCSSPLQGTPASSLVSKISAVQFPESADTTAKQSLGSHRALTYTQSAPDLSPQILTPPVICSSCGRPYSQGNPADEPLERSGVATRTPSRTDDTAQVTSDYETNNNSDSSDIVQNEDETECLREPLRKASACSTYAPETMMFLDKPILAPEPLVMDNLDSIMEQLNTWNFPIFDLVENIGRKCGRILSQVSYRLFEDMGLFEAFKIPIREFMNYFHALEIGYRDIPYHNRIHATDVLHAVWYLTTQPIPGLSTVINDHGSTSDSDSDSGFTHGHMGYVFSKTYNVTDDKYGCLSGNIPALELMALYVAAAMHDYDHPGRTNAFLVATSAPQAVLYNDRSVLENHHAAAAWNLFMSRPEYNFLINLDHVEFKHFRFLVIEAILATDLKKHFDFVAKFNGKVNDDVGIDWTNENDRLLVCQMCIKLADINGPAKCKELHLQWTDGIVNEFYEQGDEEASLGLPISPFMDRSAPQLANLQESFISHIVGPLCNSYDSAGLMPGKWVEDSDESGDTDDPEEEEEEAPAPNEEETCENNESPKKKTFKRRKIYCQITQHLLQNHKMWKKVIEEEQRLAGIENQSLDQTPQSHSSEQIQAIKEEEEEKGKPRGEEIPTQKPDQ

For orientation: IC50 means the point on the concentration scale where inhibition reaches its midpoint. For the molecule “2-(3-Cyclopentyloxy-4-methoxybenzyl)-5-chloro-7-(2-hydroxyethyl)benzoxazole Carbamate [Example 28]”, the concentration for half-maximal inhibition (IC50) against PDE III came to 36.8 µM; in the test with PDE IV it was 700 nM. As for “2-(3-cyclopentyloxy-4-methoxybenzyl)-5-chlorobenzoxazole-7-ethanal Oxime [Example 31]”, the IC50 was over 300 µM at PDE III and 1660 nM in the test on PDE IV. By inhibition is commonly meant the drop in the measured response relative to a control, in per cent. High values mean strong suppression, low ones little suppression. In turn, `C=CCc1cc(Cl)cc2nc(Cc3ccc(OC)c(OC4CCCC4)c3)oc12` [Example 1, 7-Allyl-5-chloro-2-(3-cyclopentyloxy-4-methoxybenzyl)-benzoxazole] showed an IC50 at PDE III of over 300 µM. The inhibition at 10 µM on PDE III (at 10 μM) is 22%.

Turning to `CC(C)(C)c1cc(Cc2nc3cc(Cl)cc(C#Cc4ccccn4)c3o2)cc(C(C)(C)C)c1O` [Example 2, 5-Chloro-2-(3,5-di-t-butyl-4-hydroxy-benzyl)-7(2-(2-pyridyl)-ethynyl)-benzoxazole], in the test on PDE IV, the 50% inhibitory concentration (IC50) came to 10 nM.

`CC(C)(C)c1cc(Cc2nc3cc(Cl)cc(C#Cc4nccs4)c3o2)cc(C(C)(C)C)c1O` [Example 3, 5-Chloro-2-(3,5-di-t-butyl-4-hydroxy-benzyl)-7-(2-(2-thiazolyl)-ethynyl)-benzoxazole]: in the test with PDE IV, the 50% inhibitory concentration (IC50) was 10 nM. For the molecule `COc1ccc(Cc2nc3cc(Cl)cc(Br)c3o2)cc1OC1CCCC1` [Example 4, 7-Bromo-5-chloro-2-(3-cyclopentyloxy-4-methoxybenzyl)-benzoxazole], the IC50 against PDE III stood at 7.4 µM; in the test on PDE IV, 25100 nM. For `COc1ccc(Cc2nc3cccc([N+](=O)[O-])c3o2)cc1OC1CCCC1` [Example 6, 2-(3-Cyclopentyloxy-4-methoxybenzyl)-7-nitro-benzoxazole], the IC50 at PDE III was found to be 0.6 µM; in the test with PDE IV it was 1600 nM. For `COc1ccc(Cc2nc3c(O)cccc3o2)cc1OC1CCCC1` [Example 7, 2-(3-Cyclopentyloxy-4-methoxybenzyl)-4-hydroxy-benzoxazole], in that order: 124 µM and 500 nM.

Consider `COc1ccc(Cc2nc3c(OC(C)=O)cccc3o2)cc1OC1CCCC1` [Example 8, 4-Acetoxy-2-(3-cyclopentyloxy-4-methoxybenzyl)-benzoxazole], for which the 50% inhibitory concentration (IC50) on PDE III worked out at 158 µM; in the test on PDE IV it was 750 nM. `COc1ccc(Cc2nc3c(OCc4ccccn4)cccc3o2)cc1OC1CCCC1` [Example 10, 2-((3-Cyclopentyloxy-4-methoxy)benzyl)-4-(2-pyridylmethoxy)-benzoxazole Hydrochloride]: the half-maximal inhibitory concentration (IC50) at PDE III was over 300 µM; in the test with PDE IV it was 530 nM. As for `COc1ccc(Cc2nc3cccc(N)c3o2)cc1OC1CCCC1` [Example 13, 7-Amino-2-((3-Cyclopentyloxy-4-methoxy)benzyl)-benzoxazole Hydrochloride], the IC50 turned out to be 253 µM on PDE III and 13700 nM in the test with PDE IV. On to `COc1ccc(Cc2nc3c(OC)cccc3o2)cc1OC1CCCC1` [Example 14, 2-((3-Cyclopentyloxy-4-methoxy)benzyl)-4-methoxy-benzoxazole], for which the IC50 worked out at 49.2 µM on PDE III and 1990 nM in the test with PDE IV. For `COc1ccc(Cc2nc3cccc(NC(=O)c4cccnc4)c3o2)cc1OC1CCCC1` [Example 15, 2-((3-Cyclopentyloxy-4-methoxy)benzyl)-7-(nicotinoyl-amino)-benzoxazole], in that order: 177 µM and 4790 nM. Take `COc1ccc(Cc2nc3cccc(NC(=O)c4ccncc4)c3o2)cc1OC1CCCC1` [Example 16, 2-((3-Cyclopentyloxy-4-methoxy)benzyl)-7-(isonicotinoyl-amino)-benzoxazole Hydrochloride]: the IC50 at PDE III was 43.9 µM; with PDE IV it was 6030 nM. `COc1ccc(Cc2nc3cccc(NC(=O)c4ccccn4)c3o2)cc1OC1CCCC1` [Example 17, 2-((3-Cyclopentyloxy-4-methoxy)benzyl)-7-(2-pyridine-carbonylamino)-benzoxazole]: the half-inhibitory concentration (IC50) at PDE III was determined as 121 µM; with PDE IV, 760 nM.

Consider `COc1ccc(Cc2nc3cccc(NC(=O)OCc4ccccc4)c3o2)cc1OC1CCCC1` [Example 18, 7-((Benzyloxycarbonyl)amino)-2-((3-Cyclopentyloxy-4-methoxy)-benzyl)-benzoxazole], for which the IC50 at PDE III is over 300 µM; in the test with PDE IV it was 3430 nM. On to `COc1ccc(Cc2nc3cccc(Br)c3o2)cc1OC1CCCC1` [Example 19, 2-((3-Cyclopentyloxy-4-methoxy)benzyl)-7-bromo-benzoxazole], for which the half-inhibitory concentration (IC50) against PDE III worked out at 2.8 µM; in the test on PDE IV it was 470 nM. With `CC(C)c1cc(Cc2nc3c(O)cccc3o2)cc(C(C)C)c1O` [Example 20, 2-((3,5-Di-isopropyl-4-hydroxy)benzyl)-4-hydroxy-benzoxazole], the 50% inhibitory concentration (IC50) against PDE III was determined as 34.3 µM; in the test on PDE IV, 3030 nM. `Cc1cc(Cc2nc3c(O)cccc3o2)cc(C)c1O` [Example 21, 2-((3,5-Dimethyl-4-hydroxy)benzyl)-4-hydroxybenzoxazole]: the results for the IC50 at PDE III and in the test on PDE IV were 105 µM and 24500 nM, respectively.

On to `CC(C)(C)c1cc(Cc2nc3cccc(C#Cc4ccccn4)c3o2)cc(C(C)(C)C)c1O` [Example 22], for which the IC50 with PDE IV is 70 nM. For the molecule `CC(C)c1cc(Cc2nc3cccc(C#Cc4ccccn4)c3o2)cc(C(C)C)c1O` [Example 23], the 50% inhibitory concentration (IC50) came out at 152 µM at PDE III and 260 nM with PDE IV. `COc1ccc(Cc2nc3cc(Cl)cc(CCO)c3o2)cc1OC1CCCC1` [Example 27, 2-(3-Cyclopentyloxy-4-methoxybenzyl)-5-chloro-7-(2-hydroxyethyl)Benzoxazole]: the IC50 on PDE III was determined as 38.1 µM; in the test with PDE IV, 650 nM. Turning to `COc1ccc(Cc2nc3cc(Cl)cc(CC(=O)O)c3o2)cc1OC1CCCC1` [Example 29, 2-(3-Cyclopentyloxy-4-methoxybenzyl)-5-chlorobenzoxazole-7-acetic Acid], the IC50 was 100 µM against PDE III and 11200 nM in the test on PDE IV. The corresponding values for `COc1ccc(Cc2nc3cc(Cl)cc(CC(N)=O)c3o2)cc1OC1CCCC1` [Example 30, 2-(3-Cyclopentyloxy-4-methoxybenzyl)-5-chlorobenzoxazole-7-acetamide] are 128 µM and 2920 nM. `Nc1cccc2nc(-c3cccc(Cl)c3)oc12` [Example 32]: the IC50 on PDE III is over 300 µM; with PDE IV, 32500 nM. Take `Clc1cccc(-c2nc3cccc(NCc4ccccn4)c3o2)c1` [Example 33, 2-(3-chlorophenyl)-7-(2-pyridylmethylamino)benzoxazole]: the IC50 at PDE III was found to be 173 µM; in the test with PDE IV, 9100 nM. For `COc1ccc(Cc2nc3cccc(NCc4cccnc4)c3o2)cc1OC1CCCC1` [Example 34, 2-(3-Cyclopentyloxy-4-methoxybenzyl)-7-(3-pyridylmethylamino)Benzoxazole], in that order: 33.2 µM and 1000 nM. `COc1ccc(Cc2nc3cccc(NCc4ncc[nH]4)c3o2)cc1OC1CCCC1` [Example 35, 2-(3-Cyclopentyloxy-4-methoxybenzyl)-7-(2-imidazolylmethylamino)Benzoxazole]: the concentration for half-maximal inhibition (IC50) was over 300 µM on PDE III and 19300 nM in the test on PDE IV. The corresponding values for `COc1ccc(CNc2cccc3nc(-c4cccc(Cl)c4)oc23)cc1OC1CCCC1` [Example 36, 2-(3-Chlorophenyl)-7-(3-cyclopentyloxy-4-methoxy-benzylamino)Benzoxazole] are over 300 µM and 15800 nM.
